Measurements from patent US8957001B2, “Particles comprising a biopolymer which is degradable under the effect of an electromagnetic wave as emitted by a solar radiation” (BASF Beauty Care Solutions France SAS, priority 2002, dated 2015).

Test: Progressive release of an encapsulated active from liposomes under UV irradiation
Format: physicochemical
Text: All is done in a manner identical to what is presented in Example 15, but RNA of marine origin, which is commercially available, is used in amounts which are identical to those used in Example 15. All is done in a manner identical to what is presented in Example 15, but DNA of plant origin or RNA of plant origin, which are commercially available (Inocosm), are used in amounts which are identical to those used in Example 15. All is done in a manner identical to what is presented in Example 15, but oligonucleosides or oligonucleotides, which are prepared by chemical synthesis and which are available from companies which manufacture these nucleosides or these nucleotides to order, are used for preparing these particles, in proportions which are identical to those used in Example 15.

Compound | release under UV irradiation (encapsulated in plant DNA or plant RNA liposomes (Example 17), after 3 hours of irradiation) | release under UV irradiation (encapsulated in plant DNA or plant RNA liposomes (Example 17), after 6 hours of irradiation) | release under UV irradiation (encapsulated in marine RNA liposomes (Example 16), after 3 hours of irradiation) | release under UV irradiation (encapsulated in marine RNA liposomes (Example 16), after 6 hours of irradiation)
CCCCC(CC)COC(=O)C=Cc1ccc(OC)cc1 (stereo not shown) [Parsol MCX] | 60% | 96% |  | 
tocopherol |  |  | 40% | 80%
